Results from ChEMBL document CHEMBL6115006, “Discovery of potent quinone oxidoreductase 2 inhibitors to overcome TRAIL resistance of non-small cell lung cancer” (Eur J Med Chem, 2025).

Assays:
[1] = target: T1, Ribosyldihydronicotinamide dehydrogenase [quinone] (Homo sapiens, UniProt P16083)
T1 sequence (P16083 whole entry): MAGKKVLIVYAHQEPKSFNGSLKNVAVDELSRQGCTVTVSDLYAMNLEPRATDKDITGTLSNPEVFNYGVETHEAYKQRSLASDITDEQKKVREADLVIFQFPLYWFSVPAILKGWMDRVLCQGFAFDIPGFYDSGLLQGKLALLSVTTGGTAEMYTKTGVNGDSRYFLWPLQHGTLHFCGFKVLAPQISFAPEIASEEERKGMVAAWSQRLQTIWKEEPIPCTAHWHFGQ
Description: Inhibition of recombinant human NQO2 using DCPIP and EPR as substrate measured over 1 min in presence of FAD by spectrophotometric analysis

A549 = assay: cells; conditions: Homo sapiens, A549, 48 h, read-out: INH

| IC50 [1] | Structure (SMILES) | inhibition at 10 µM (A549) |
| --- | --- | --- |
| 69 nM | COc1cc(-c2ccc3cc(N)ccc3c2)cc(OC)c1OC | 24.3% |
|  | Oc1ccc(/C=C/c2cc(O)cc(O)c2)cc1 [RESVERATROL] | 15.4% |
|  | COc1cc(/C=C/c2ccc(N)cc2)cc(OC)c1OC | 14.7% |
